Laboratory results as given in ChEMBL document CHEMBL4706561, “Efficient chemoenzymatic synthesis of fluorinated sialyl Thomsen-Friedenreich antigens and investigation of their characteristics” (Eur J Med Chem, 2020).

Biological target: T1, Sialidase (Clostridium perfringens, UniProt P10481)
T1 sequence (P10481 whole entry): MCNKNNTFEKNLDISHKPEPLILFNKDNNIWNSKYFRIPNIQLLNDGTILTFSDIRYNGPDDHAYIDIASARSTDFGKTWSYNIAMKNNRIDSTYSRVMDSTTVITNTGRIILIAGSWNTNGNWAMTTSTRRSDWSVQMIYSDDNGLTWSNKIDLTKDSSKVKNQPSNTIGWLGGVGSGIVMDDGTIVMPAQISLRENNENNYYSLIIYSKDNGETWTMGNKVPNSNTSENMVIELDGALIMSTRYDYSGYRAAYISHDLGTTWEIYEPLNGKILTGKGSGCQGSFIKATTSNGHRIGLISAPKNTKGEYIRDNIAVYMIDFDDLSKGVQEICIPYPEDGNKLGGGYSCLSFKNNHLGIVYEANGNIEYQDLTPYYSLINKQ
Assay: Stability in D2O assessed as Clostridium perfringens sialidase-mediated hydrolysis by measuring betaKdn formation at 10 mM measured after 12 hrs by 1H NMR spectroscopy
Format: ADME
Conditions: 10000 µM

CC(=O)N[C@H]1[C@@H](OCCCN=[N+]=[N-])O[C@H](CO)[C@H](O)[C@@H]1O[C@@H]1O[C@H](CF)[C@H](O)[C@H](O[C@]2(C(=O)O)C[C@H](O)[C@@H](O)[C@H]([C@H](O)[C@H](O)CO)O2)[C@H]1O
Drug metabolism: Metabolite_Notdetected
